Laboratory results reported in patent US10512644B2, “Oligomer-opioid agonist conjugates” (Nektar Therapeutics, priority 2007, dated 2019).
Where two headings read alike, the source gives them in different places.

What was measured:
[1] = molecular target: T1, mu opioid receptor (Homo sapiens (Human), UniProt P35372); assay type: binding; settings: mean IC50 ratio, ↓ = lower affinity
Protocol: Using conventional in vitro mu opioid receptor binding affinity assays, IC50 values were determined for each of alpha-6-mPEGn-O-hydrocodonol compounds.

[2] = tested on: CD-1 male mice (phenylquinone-induced writhing, visceral pain); assay: Phenylquinone writhing analgesic assay; assay type: in vivo; settings: mPEGn-O-HydroxyCodone series, writhing 35-45 min after pretreatment
Protocol: Mice were treated according to standard protocols. Mice were given a single “pretreatment” dose of a compound lacking covalent attachment of a water-soluble, non-peptidic oligomer (i.e., non-PEG oligomer-modified parent molecule), a corresponding version comprising the compound covalently attached to a water-soluble, non-peptidic oligomer (i.e., the conjugate), or control solution (IV, SC, IP or orally) thirty minutes prior to the administration of the phenylquinone (PQ) solution. Each animal was given an IP injection of an irritant (phenylquinone, PQ) that induces “writhing” which may include: contractions of the abdomen, twisting and turning of the trunk, arching of the back, and the extension of the hindlimbs. Each animal was given an IP injection of PQ (1 mg/kg PQ, 0.1 mL/10 g bodyweight). After the injection, the animals were returned to their observation enclosure and their behavior was observed. Contractions were counted between 35 and 45 minutes after the “pretreatment”. The animals were used once. Each tested article was dosed at a range between 0.1 and 100 mg/kg (n=5-10 animals/dose).

[3] = Plasma pharmacokinetics after intravenous dosing in male Sprague-Dawley rats; settings: IV 1 mg/kg, PEGylated hydroxycodone
[4] = molecular target: T1, mu opioid receptor; assay: cell-based; assay type: binding; settings: whole CHO cells, 0.5 nM 3H Naloxone; read-out: Ki at MU Receptors
Protocol: (§1) Using conventional receptor binding assay techniques, several molecules were assayed to determine binding activity at kappa, mu and delta opioid subtypes of opioid receptors.
(§2) Cells were plated in 24 well plates at a density of 0.2-0.3*10^6 cells/well and washed with assay buffer containing 50 mM Tris.HCl and 5 mM MgCl2 (pH 7.4). Competition binding assays were conducted in whole cells incubated with increasing concentrations of test compounds in the presence of appropriate concentration of radioligand. 0.5 nM ^3H Naloxone, 0.5 nM ^3H Diprenorphine and 0.5 nM ^3H DPDPE were used as the competing radioligands for mu, kappa and delta receptors respectively. Incubations were carried out for two hours at room temperature using triplicate wells at each concentration. At the end of the incubation, cells were washed with 50 mM Tris HCl (pH 8.0), solubilized with NaOH and bound radioactivity was measured using a scintillation counter.
(§3) Specific binding is determined by subtraction of the cpm bound in the presence of 50-100× excess of cold ligand. Binding data assays were analyzed using GraphPad Prism 4.0 and IC50 is generated by non-linear regression from dose-response curves.

[5] = molecular target: recombinant human delta opioid receptor (Homo sapiens (Human), UniProt P41143); assay: Radioligand competition binding in whole CHO cells, delta opioid receptor (3H DPDPE)
Chain of recombinant human delta opioid receptor (P41143 whole entry, looked up): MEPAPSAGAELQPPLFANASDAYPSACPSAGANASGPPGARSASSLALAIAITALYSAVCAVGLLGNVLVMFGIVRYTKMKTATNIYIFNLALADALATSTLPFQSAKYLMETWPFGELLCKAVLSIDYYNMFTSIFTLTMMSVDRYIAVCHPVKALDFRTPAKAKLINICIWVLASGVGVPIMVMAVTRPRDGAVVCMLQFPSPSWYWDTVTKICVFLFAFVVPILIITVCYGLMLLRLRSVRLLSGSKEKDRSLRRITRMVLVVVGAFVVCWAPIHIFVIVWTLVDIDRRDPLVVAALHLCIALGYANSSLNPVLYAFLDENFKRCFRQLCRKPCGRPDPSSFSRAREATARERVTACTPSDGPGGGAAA
Protocol: as §1, §2, §3

[6] = molecular target: cloned human mu opioid receptor (Homo sapiens (Human), UniProt P35372); assay type: cell-based; settings: inhibition of cAMP formation, 3 μM forskolin, whole cells
Protocol: The efficacy of the various PEG-opioid conjugates was measured by their ability to inhibit cAMP formation following receptor activation. Studies were conducted in CHO cells heterologously expressing the cloned human mu, kappa or delta opioid receptors. cAMP was measured using a cAMP HiRange homogenous time-resolved fluorescence assay (HTRF Assay), that is based on a competitive immunoassay principle (Cisbio, Cat.#62AM6PEC).
Briefly, suspensions of cells expressing either the mu, kappa or delta opioid receptors were prepared in buffer containing 0.5 mM isobutyl-methyl xanthine (IBMX). […] EC50 values were calculated for each compound from a sigmoidal dose-response plot of concentrations versus maximum response. To determine if the compounds behaved as full or partial agonists in the system, the maximal response at the highest tested concentrations of compounds were compared to that produced by a known full agonist.

[7] = molecular target: T2, recombinant human kappa opioid receptor (Homo sapiens (Human), UniProt P41145); assay: cell-based; assay type: binding; settings: whole CHO cells, 0.5 nM 3H Diprenorphine; read-out: Ki at KAPPA receptors
Protocol: as §1, §2, §3

[8] = molecular target: T2, recombinant human kappa opioid receptor; assay: biochemical; settings: agonist mode; read-out: Kappa Agonist EC50, GTP-γS Binding
Protocol: (§4) The reaction is initiated by 0.3 nM [^35S]GTPγS for an additional 30 minutes incubation period. Test compound-induced increase of [^35S]GTPγS binding by 50 percent or more (≥50%) relative to the receptor subtype-specific agonist response indicates possible opiate receptor agonist activity.

[9] = molecular target: T1, mu opioid receptor; assay: biochemical; settings: antagonist mode vs 1 μM DAMGO; read-out: Mu Antagonist IC50, GTP-γS Binding
Protocol: as §4

[10] = in vivo; settings: rat, iv, 25 mg/kg

COCCOCCOCCOCCOCCOCCOCCO[C@H]1CC[C@H]2[C@H]3Cc4ccc(OC)c5c4[C@@]2(CCN3C)[C@H]1O5 [α-6-mPEG7-O-Hydrocodonol]
Fold Change vs. Hydrocodone [1]: 26.32 ↓

COCCOCCOCCOCCOCCO[C@H]1CC[C@H]2[C@H]3Cc4ccc(OC)c5c4[C@@]2(CCN3C)[C@H]1O5 [α-6-mPEG5-O-Hydrocodonol]
Fold Change vs. Hydrocodone [1]: 6.20 ↓

COCCO[C@H]1CC[C@@]2(O)[C@H]3Cc4ccc(OC)c5c4[C@@]2(CCN3C)[C@H]1O5 [α-6-mPEG1-O-Hydroxycodone, α-6-mPEG1-O-hydroxycodone]
ED50 [2]: 6.064 mg/kg
mean exposure (AUC) as compared to oxycodone [3]: slightly lower mean exposure

COCCOCCOCCOCCO[C@H]1CC[C@@]2(O)[C@H]3Cc4ccc(O)c5c4[C@@]2(CCN3CC2CCC2)[C@H]1O5 [6-O-mPEG4-Nalbuphine, 6-O-mPEG4-nalbuphine]
Ki [4]: 17.5 nM
Ki [5]: 149 nM

COCCO[C@H]1CC[C@H]2[C@H]3Cc4ccc(OC)c5c4[C@@]2(CCN3C)[C@H]1O5 [α-6-mPEG1-O-Hydrocodonol]
Fold Change vs. Hydrocodone [1]: 6.03 ↓

COCCOCCOCCOCCOCCOCCO[C@H]1CC[C@@]2(O)[C@H]3Cc4ccc(OC)c5c4[C@@]2(CCN3C)[C@H]1O5 [α-6-mPEG6-O-Hydroxycodone, α-6-mPEG6-O-hydroxycodone]
mean exposure (AUC) as compared to oxycodone [3]: comparable mean exposure

COc1ccc2c3c1O[C@H]1C(=O)CC[C@@]4(O)[C@@H](C2)N(C)CC[C@]314 [Oxycodone, oxycodone, reference compound]
ED50 ([2]; Mus musculus, read-out: ED50): 0.619 mg/kg

COCCOCCOCCOCCO[C@H]1CC[C@@]2(O)[C@H]3Cc4ccc(OC)c5c4[C@@]2(CCN3C)[C@H]1O5 [α-6-mPEG4-O-Hydroxycodone, α-6-mPEG4-O-hydroxycodone]
ED50 [2]: 17.31 mg/kg
mean exposure (AUC) as compared to oxycodone [3]: slightly lower mean exposure

COCCOCCO[C@H]1CC[C@@]2(O)[C@H]3Cc4ccc(OC)c5c4[C@@]2(CCN3C)[C@H]1O5 [α-6-mPEG2-O-Hydroxycodone, α-6-mPEG2-O-hydroxycodone]
mean exposure (AUC) as compared to oxycodone [3]: slightly lower mean exposure

COCCOCCOCCO[C@H]1CC[C@H]2[C@H]3Cc4ccc(OC)c5c4[C@@]2(CCN3C)[C@H]1O5 [α-6-mPEG3-O-Hydrocodonol]
Fold Change vs. Hydrocodone [1]: 5.87 ↓

COCCOCCO[C@H]1CC[C@H]2[C@H]3Cc4ccc(OC)c5c4[C@@]2(CCN3C)[C@H]1O5 [α-6-mPEG2-O-Hydrocodonol]
Fold Change vs. Hydrocodone [1]: 5.84 ↓

COCCOCCOCCOCCOCCOCCOCCOCCO[C@H]1CC[C@H]2[C@H]3Cc4ccc(OC)c5c4[C@@]2(CCN3C)[C@H]1O5 [α-6-mPEG8-O-Hydrocodonol]
Fold Change vs. Hydrocodone [1]: 40.10 ↓

COCCOCCOCCOCCO[C@H]1CC[C@H]2[C@H]3Cc4ccc(OC)c5c4[C@@]2(CCN3C)[C@H]1O5 [α-6-mPEG4-O-Hydrocodonol]
Fold Change vs. Hydrocodone [1]: 7.14 ↓

COCCOCCOCCOCCOCCOCCO[C@H]1CC[C@H]2[C@H]3Cc4ccc(OC)c5c4[C@@]2(CCN3C)[C@H]1O5 [α-6-mPEG6-O-Hydrocodonol]
Fold Change vs. Hydrocodone [1]: 11.12 ↓

α-6-hydroxycodone
EC50 [6]: 3160 nM

COCCOCCOCCOCCOCCOCCOCCOCCOCCO[C@H]1CC[C@H]2[C@H]3Cc4ccc(OC)c5c4[C@@]2(CCN3C)[C@H]1O5 [α-6-mPEG9-O-Hydrocodonol]
Fold Change vs. Hydrocodone [1]: 16.30 ↓

COCCOCCOCCOCCOCCOCCOCCO[C@H]1CC[C@@]2(O)[C@H]3Cc4ccc(OC)c5c4[C@@]2(CCN3C)[C@H]1O5 [α-6-mPEG7-O-Hydroxycodone, α-6-mPEG7-O-hydroxycodone]
mean exposure (AUC) as compared to oxycodone [3]: higher mean exposure

COc1ccc2c3c1O[C@H]1[C@@H](O)CC[C@H]4[C@@H](C2)N(C)CC[C@@]341 [α-6-Hydrocodonol, 6-hydrocodonol, reference compound]
Fold Change vs. Hydrocodone [1]: 7.50 ↓

COCCOCCOCCO[C@H]1CC[C@@]2(O)[C@H]3Cc4ccc(O)c5c4[C@@]2(CCN3CC2CCC2)[C@H]1O5 [6-O-mPEG3-Nalbuphine, 6-O-mPEG3-nalbuphine]
Ki [4]: 27.4 nM
Ki [7]: 218 nM
Ki [5]: 163 nM
EC50 [8]: 26.8 nM
IC50 [9]: 398 nM
Kp at 1 h [10]: 0.23
